# Activity calls are given as the source filed them. The calls are words filed in the database; no cut-off is given here.
# Experiments:
# Salmonella typhimurium [1] = experiment: Antimicrobial activity against Salmonella typhimurium C7731 assessed as bacterial killing measured after 16 hrs incubation; format: functional, Salmonella enterica subsp. enterica serovar Typhimurium; conditions: Salmonella enterica
# Staphylococcus aureus [2] = experiment: Outer membrane permeabilization/cell wall in Staphylococcus aureus 29213 assessed as fluorescence intensity of NPN measured at 2 to 128 uM after 1 hr by spectrophotometry; format: functional, organism-based; conditions: dose 2-128 µM
# Escherichia coli [3] = experiment: Antimicrobial activity against Escherichia coli 25922 assessed as bacterial killing measured after 16 hrs incubation; format: functional
# [4] = Antimicrobial activity against Salmonella pullorum C7913 assessed as bacterial killing measured after 16 hrs incubation; format: functional, Salmonella enterica subsp. enterica serovar Pullorum; conditions: Salmonella enterica
# Escherichia coli [5] = experiment: Antimicrobial activity against Escherichia coli 25922 assessed as absence bacterial growth measured after 18 to 24 hrs incubation in presence of NaCl by NCCLS method; format: functional; conditions: time 18-24 hrs
# [6] = Cytotoxicity against human HEK-293T cells assessed as cell survival rate at 64 uM measured after 8 hrs by MTT assay relative to control; format: toxicity, cell-based; conditions: read-out: Activity
# Staphylococcus aureus [7] = experiment: Induction of morphological changes in Staphylococcus aureus 29213 assessed as loose distribution of cellular contents by using transmission electron microscopy; format: functional, organism-based
# Staphylococcus aureus [8] = experiment: Antimicrobial activity against Methicillin-resistant Staphylococcus aureus 43300 assessed as bacterial killing measured after 16 hrs incubation; format: functional
# Bacillus cereus [9] = experiment: Antimicrobial activity against Bacillus cereus 1.932 assessed as bacterial killing measured after 16 hrs incubation; format: functional
# Escherichia coli [10] = experiment: Antimicrobial activity against Escherichia coli 25922 assessed as absence bacterial growth measured after 18 to 24 hrs incubation by NCCLS method; format: functional; conditions: time 18-24 hrs
# Escherichia coli [11] = experiment: Antimicrobial activity against Escherichia coli 25922 assessed as absence bacterial growth measured after 18 to 24 hrs incubation in presence of MgCl2 by NCCLS method; format: functional; conditions: time 18-24 hrs
# Escherichia coli [12] = experiment: Antibacterial activity against Escherichia coli 25922 assessed as absence bacterial growth measured after 12 hrs treated with H2O2; format: functional
# Escherichia coli [13] = experiment: Antibacterial activity against Escherichia coli 25922 assessed as absence bacterial growth measured after 18 to 24 hrs incubation at pH 6 by NCCLS method; format: functional; conditions: time 18-24 hrs
# Escherichia coli [14] = experiment: Antibacterial activity against Escherichia coli 25922 assessed as absence bacterial growth measured after 18 to 24 hrs incubation at pH 4 by NCCLS method; format: functional; conditions: time 18-24 hrs
# [15] = Cytotoxicity against mouse RAW264.7 cells assessed as cell survival rate measured after 8 hrs by MTT assay; format: toxicity, cell-based
# Staphylococcus aureus [16] = experiment: Effect on inner membrane fluidity in Staphylococcus aureus 29213 assessed as reduction in intracellular membrane fluidity by measuring fluorescence intensity of Laurdan-GP after 60 mins by spectrophotometry; format: functional, organism-based
# Escherichia coli [17] = experiment: Outer membrane permeabilization/cell wall in Escherichia coli 25922 assessed as fluorescence intensity of NPN measured at 2 to 128 uM after 1 hr by spectrophotometry; format: functional, organism-based; conditions: dose 2-128 µM
# Escherichia coli [18] = experiment: Antimicrobial activity against Escherichia coli K88 assessed as bacterial killing measured after 16 hrs incubation; format: functional
# Escherichia coli [19] = experiment: Effect on inner membrane fluidity in Escherichia coli 25922 assessed as reduction in intracellular membrane fluidity by measuring fluorescence intensity of Laurdan-GP after 60 mins by spectrophotometry; format: functional, organism-based
# Escherichia coli [20] = experiment: Antimicrobial activity against Escherichia coli 25922 assessed as absence bacterial growth measured after 18 to 24 hrs incubation in presence of 25% serum by NCCLS method; format: functional; conditions: time 18-24 hrs
# Escherichia coli [21] = experiment: Antibacterial activity against Escherichia coli 25922 assessed as absence bacterial growth measured after 4 hrs treated with H2O2; format: functional
# Enterococcus faecalis = experiment: Antimicrobial activity against Enterococcus faecalis 29212 assessed as absence bacterial growth measured after 18 to 24 hrs incubation by NCCLS method; format: functional; conditions: time 18-24 hrs
# Staphylococcus aureus [22] = experiment: Antimicrobial activity against Staphylococcus aureus 25923 assessed as bacterial killing measured after 16 hrs incubation; format: functional
# Escherichia coli [23] = experiment: Inhibition of respiratory chain dehydrogenase activity in mid-log phase Escherichia coli 25922 measured after 4 hrs by Red-tetraazoline based spectrophotometry assay
# Bacillus cereus [24] = experiment: Antimicrobial activity against Bacillus cereus 1.932 assessed as absence bacterial growth measured after 18 to 24 hrs incubation by NCCLS method; format: functional; conditions: time 18-24 hrs
# Staphylococcus aureus [25] = experiment: Antimicrobial activity against Staphylococcus aureus 29213 assessed as absence bacterial growth measured after 18 to 24 hrs incubation by NCCLS method; format: functional; conditions: time 18-24 hrs
# Salmonella typhimurium [26] = experiment: Antimicrobial activity against Salmonella typhimurium 14028 assessed as bacterial killing measured after 16 hrs incubation; format: functional, Salmonella enterica subsp. enterica serovar Typhimurium; conditions: Salmonella enterica
# DNA [27] = experiment: Binding affinity to DNA in Escherichia coli 25922 incubated for 1 hr by electrophoresis; format: nucleic-acid assay
# Escherichia coli [28] = experiment: Antimicrobial activity against Escherichia coli 25922 assessed as absence bacterial growth measured after 18 to 24 hrs incubation in presence of KCl by NCCLS method; format: functional; conditions: time 18-24 hrs
# Cell membrane = experiment: Induction of membrane disruption in Escherichia coli 25922 assessed as increase in extracellular ATP level at 4 to 32 uM measured after 1 hr; format: cell membranes; conditions: dose 4-32 µM
# Pseudomonas aeruginosa = experiment: Antimicrobial activity against Pseudomonas aeruginosa 27853 assessed as bacterial killing measured after 16 hrs incubation; format: functional
# DNA [29] = experiment: Binding affinity to DNA in Staphylococcus aureus 29213 incubated for 1 hr by electrophoresis; format: nucleic-acid assay
# Salmonella typhimurium [30] = experiment: Antimicrobial activity against Salmonella typhimurium 14028 assessed as absence bacterial growth measured after 18 to 24 hrs incubation by NCCLS method; format: functional, Salmonella enterica subsp. enterica serovar Typhimurium; conditions: Salmonella enterica, time 18-24 hrs
# Listeria monocytogenes = experiment: Antimicrobial activity against Listeria monocytogenes 1.10753 assessed as absence bacterial growth measured after 18 to 24 hrs incubation by NCCLS method; format: functional; conditions: time 18-24 hrs
# Escherichia coli [31] = experiment: Induction of morphological changes in Escherichia coli 25922 assessed as changes in cell surface by measuring signs of disruption by using scanning electron microscopy; format: functional, organism-based
substance,measurement,setting,value
H-GKLWLKAGKLWLKGGKLWLKG-NH2,MBC,Salmonella typhimurium [1],32 µM
same,permeability,Staphylococcus aureus [2],Permeable
same,MBC,Escherichia coli [3],2 µM
same,MBC,[4],1 µM
same,MIC,Escherichia coli [5],16 µM
same,"viability at 8 h, 64 µM",[6],> 80%
same,Activity,Staphylococcus aureus [7],Active
same,MBC,Staphylococcus aureus [8],4 µM
same,MBC,Bacillus cereus [9],2 µM
same,MIC,Escherichia coli [10],2 µM
same,MIC,Escherichia coli [11],8 µM
same,MIC,Escherichia coli [12],4 µM
same,MIC,Escherichia coli [13],2 µM
same,MIC,Escherichia coli [14],> 64 µM
same,IC50 at 8 h,[15],> 64 µM
same,Activity,Staphylococcus aureus [16],Active
same,permeability,Escherichia coli [17],Permeable
same,MBC,Escherichia coli [18],0.5 µM
same,Activity,Escherichia coli [19],Active
same,MIC,Escherichia coli [20],32 µM
same,MIC,Escherichia coli [21],2 µM
same,MIC,Enterococcus faecalis,4 µM
same,MBC,Staphylococcus aureus [22],4 µM
same,inhibition,Escherichia coli [23],Active
same,MIC,Bacillus cereus [24],2 µM
same,MIC,Staphylococcus aureus [25],4 µM
same,MBC,Salmonella typhimurium [26],16 µM
same,Activity,DNA [27],Active
same,MIC,Escherichia coli [28],2 µM
same,Activity,Cell membrane,Active
same,MBC,Pseudomonas aeruginosa,8 µM
same,Activity,DNA [29],Active
same,MIC,Salmonella typhimurium [30],2 µM
same,MIC,Listeria monocytogenes,> 32 µM
same,Activity,Escherichia coli [31],Active
